The values below come from publication PMC6812366 (ACS Omega, 2019).

pKd: −log10 of the molar value.

Test [1] deals with T1, hDcpS (human decapping scavenger enzyme) (Homo sapiens, UniProt Q96C86). Nature of the test: intrinsic Trp fluorescence quenching titration, association constant Kas. Format: binding.
The target of test [2] is T2, CeDcpS (C. elegans decapping scavenger enzyme) (Caenorhabditis elegans, UniProt G5EFS4).
T2 sequence (G5EFS4 1-311): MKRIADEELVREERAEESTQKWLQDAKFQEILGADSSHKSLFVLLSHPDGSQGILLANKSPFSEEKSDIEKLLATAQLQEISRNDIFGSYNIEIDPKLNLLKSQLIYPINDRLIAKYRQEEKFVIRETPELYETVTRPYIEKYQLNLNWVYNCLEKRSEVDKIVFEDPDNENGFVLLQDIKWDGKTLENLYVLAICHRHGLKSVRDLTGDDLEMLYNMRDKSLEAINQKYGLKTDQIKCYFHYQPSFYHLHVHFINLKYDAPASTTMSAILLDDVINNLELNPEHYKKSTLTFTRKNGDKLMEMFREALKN
Described as above. Format: binding.

The target of test [3] is T1, hDcpS (human decapping scavenger enzyme). Nature of the test: HPLC decapping assay with recombinant enzyme, hydrolysis rate V0 at […] substrate. The test is classed as biochemical.
Test [4] has as its target T2, CeDcpS (C. elegans decapping scavenger enzyme). The test is described as above. Format: biochemical.

T1 sequence (Q96C86 2-337): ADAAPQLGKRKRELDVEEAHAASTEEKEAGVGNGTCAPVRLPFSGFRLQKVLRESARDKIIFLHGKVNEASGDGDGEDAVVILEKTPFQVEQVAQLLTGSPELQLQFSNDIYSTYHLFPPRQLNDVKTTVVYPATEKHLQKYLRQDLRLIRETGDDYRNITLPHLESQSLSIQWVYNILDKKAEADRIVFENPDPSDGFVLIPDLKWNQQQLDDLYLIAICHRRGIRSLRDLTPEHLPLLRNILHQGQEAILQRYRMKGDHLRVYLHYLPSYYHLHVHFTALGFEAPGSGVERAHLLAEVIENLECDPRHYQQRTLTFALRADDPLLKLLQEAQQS

What is called pKd is the negative decadic logarithm of the Kd, by convention in mol/L. High values mean a low Kd, low ones a high Kd. Consider `CNc1nc2c(c(=O)[nH]1)[n+](C)cn2[C@@H]1O[C@H](COP(=O)(O)O)[C@@H](O)[C@H]1O` [m2m7GMP], for which the pKd in test [1] was 6.54; in test [2], 6.87.

Turning to `C[n+]1cn([C@@H]2O[C@H](COP(=O)(O)OP(=O)(O)OP(=O)(O)OC[C@H]3O[C@@H](n4cnc5c(=O)[nH]c(N)nc54)[C@H](O)[C@@H]3O)[C@@H](O)[C@H]2O)c2nc(N)[nH]c(=O)c21` [m7GpppG, P1-(7-methylguanosin-5′-yl)-P3-guanosin-5′-yl triphosphate], the hDcpS in test [3] is 4.33 ± 0.23 µM/min. Besides, the CeDcpS in test [4] is 1.83 ± 0.21 µM/min.
